Source: patent US7816535B2, “Vinyl-phenyl derivatives for inflammation and immune-related uses” (Synta Pharmaceuticals Corp., priority 2006, dated 2010)
Counter-ions that a name gives are not always drawn.

Each molecule was assayed on IL-2 production (assay: Inhibition of IL-2 production in PHA-activated Jurkat cells (ELISA)). Settings: Homo sapiens, Jurkat, 20 h, PHA 2.5 μg/mL, IL-2 ELISA.
Type: cell-based
Protocol: Jurkat cells were placed in a 96 well plate (0.5 million cells per well in 1% FBS medium) then a test compound of this invention was added at different concentrations. After 10 minutes, the cells were activated with PHA (final concentration 2.5 μg/mL) and incubated for 20 hours at 37° C. under CO2. The final volume was 200 μL. Following incubation, the cells were centrifuged and the supernatants collected and stored at −70° C. prior to assaying for IL-2 production. A commercial ELISA kit (IL-2 Eli-pair, Diaclone Research, Besancon, France) was used to detect production of IL-2, from which dose response curves were obtained. The IC50 value was calculated as the concentration at which 50% of maximum IL-2 production after stimulation was inhibited versus a non-stimulation control.

IC50 [nM] | SMILES
23.1 | O=C(Nc1ccc(C2=C(c3cnco3)CCCCC2)cc1)c1c(F)cccc1F [Compound 38]
13.9 | C=C(C)[C@H]1CCC(C)=C(c2ccc(NC(=O)c3ccncc3F)nc2)C1 [Compound 5]
23 | CCOC(=O)N1CCC(C)=C(c2ccc(NC(=O)c3c(F)cccc3F)cc2)C1 [Compound 12, Ethyl 3-(4-(2,6-difluorobenzamido)phenyl)-4-methyl-5,6-dihydropyridine-1(2H)-carboxylate]
43.8 | CC(C)=C(c1ccccc1)c1ccc(NC(=O)c2c(F)cccc2F)cc1 [Compound 92, 2,6-Difluoro-N-[4-(2-methyl-1-phenyl-propenyl)-phenyl]-benzamide]
> 1000 | CC1=C(c2ccc(NC(=O)c3c(F)cccc3F)cc2)CN(Cc2ccccc2)CC1 [Compound 11, N-(4-(1-benzyl-4-methyl-1,2,5,6-tetrahydropyridin-3-yl)phenyl)-2,6-difluorobenzamide]
431 | CC(=O)N1CCC(C)=C(c2ccc(NC(=O)c3c(F)cccc3F)cc2)C1 [Compound 62, 2,6-Difluoro-N-[4-(1-acetyl-4-methyl-1,2,5,6-tetrahydro-pyridin-3-yl)-phenyl]-benzamide]
> 1000 | CC1=C(c2ccc(NC(=O)c3ncncc3C)cc2)CN(c2nc(C)c(C)o2)CC1 [Compound 81, 5-Methyl-pyrimidine-4-carboxylic acid {4-[1-(4,5-dimethyl-oxazol-2-yl)-4-methyl-1,2,5,6-tetrahydro-pyridin-3-yl]-phenyl}-amide]
48.9 | CC1=C(c2ccc(NC(=O)c3ccncc3C)cc2)CN(c2nccs2)CC1 [Compound 59, N-[4-(1-thiazol-2-yl-4-methyl-1,2,5,6-tetrahydro-pyridin-3-yl)-phenyl]-3-methyl-isonicotinamide]
> 1000 | CCOC(=O)C1=C(c2ccc(NC(=O)c3c(F)cccc3F)cc2)CCN(C#N)C1 [Compound 56, 2,6-Difluoro-N-[4-(1-cyano-3-ethoxycarbonyl-1,2,5,6-tetrahydro-pyridin-4-yl)-phenyl]-benzamide]
95 | CCOC(=O)N1C=C(c2ccc(NC(=O)c3c(F)cccc3F)cc2)C(C)CC1 (stereo not shown) [Compound 8, 5-[4-(2,6-difluoro-benzoylamino)-phenyl]-4-methyl-2,4-dihydro-2H-pyridine-1-carboxylic acid ethyl ester]
20.5 | O=C(Nc1ccc(C2=C(c3cnco3)CCC2)cc1)c1c(F)cccc1F [Compound 34, 2,6-Difluoro-N-[4-(2-oxazol-5-yl-cyclopent-1-enyl)-phenyl]-benzamide]
97.1 | C=CC1=C(c2ccc(NC(=O)c3c(F)cccc3F)cc2)CCC1 [Compound 33, 2,6-Difluoro-N-[4-(2-vinyl-cyclopent-1-enyl)-phenyl]-benzamide]
235 | C=CCOC(=O)N1CCC(c2ccc(NC(=O)c3c(F)cccc3F)cc2)=C(C)C1 [Compound 54, 2,6-Difluoro-N-[4-(1-allyloxycarbonyl-3-methyl-1,2,5,6-tetrahydro-pyridin-4-yl)-phenyl]-benzamide]
143 | CC1=C(c2ccc(NC(=O)c3scnc3Cl)cc2)CCCC1 [Compound 28, 4-Chloro-thiazole-5-carboxylic acid [4-(2-methyl-cyclohex-1-enyl)-phenyl]-amide]
164 | CC1=C(c2ccc(NC(=O)c3ccncc3C)cc2)CN(S(=O)(=O)c2ccccc2)CC1 [Compound 61, N-[4-(1-phenylsulfonyl-4-methyl-1,2,5,6-tetrahydro-pyridin-3-yl)-phenyl]-3-methyl-isonicotinamide]
> 1000 | O=C(Nc1ccc(C2=C(CO)CCCCC2)cc1)c1c(F)cccc1F [Compound 36, 2,6-Difluoro-N-[4-(2-hydroxymethyl-cyclohept-1-enyl)-phenyl]-benzamide]
104 | COC(=O)C1=C(c2ccc(NC(=O)c3c(F)cccc3F)cc2)CCCCC1 [Compound 35, 2,6-Difluoro-N-[4-(2-methoxycarbonyl-cyclohept-1-enyl)-phenyl]-benzamide]
456 | CC1=C(c2ccc(NC(=O)c3c(F)cccc3F)cc2)CN(C(N)=S)CC1 [Compound 73, 2,6-Difluoro-N-[4-(1-thiocarbamoyl-4-methyl-1,2,5,6-tetrahydro-pyridin-3-yl)-phenyl]-benzamide]

IC50 [nM] | SMILES
382 | CC(C)=C(C)c1ccc(NC(=O)c2ccncc2F)cc1 [Compound 13, 3-Fluoro-N-(4-(3-methylbut-2-en-2-yl)phenyl)-isonicotinamide]
> 1000 | O=C(Nc1ccc(C2=C(CO)CCC2)cc1)c1c(F)cccc1F [Compound 31, 2,6-Difluoro-N-[4-(2-hydroxymethyl-cyclopent-1-enyl)-phenyl]-benzamide]
24.6 | CCOC(=O)N1CCC(c2ccc(NC(=O)c3c(F)cccc3F)cc2)=C(C)C1 [Compound 16, Ethyl 4-(4-(2,6-difluorobenzamido)phenyl)-3-methyl-5,6-dihydropyridine-1(2H)-carboxylate]
282 | CCOC(=O)C1=C(c2ccc(NC(=O)c3c(F)cccc3F)cc2)CCCC1 [Compound 99, N-[4-(2-ethyoxycarbonyl-cyclohex-1-enyl)-phenyl]-2,6-difluoro-benzamide]
90 | O=CC1=C(c2ccc(NC(=O)c3c(F)cccc3F)cc2)CCCC1 [Compound 100, N-[4-(2-formyl-cyclohex-1-enyl)-phenyl]-2,6-difluoro-benzamide]
12.4 | CC1=C(c2ccc(NC(=O)c3c(F)cccc3F)cc2)CN(c2ncco2)CC1 [Compound 70, 2,6-Difluoro-N-[4-(1-oxazol-2-yl-4-methyl-1,2,5,6-tetrahydro-pyridin-3-yl)-phenyl]-benzamide]
> 1000 | O=CC1=C(c2ccc(NC(=O)c3c(F)cccc3F)cc2)CCC1 [Compound 32, 2,6-Difluoro-N-[4-(2-formyl-cyclopent-1-enyl)-phenyl]-benzamide]
22.8 | C=CC1=C(c2ccc(NC(=O)c3c(F)cccc3F)cc2)CCN(C(=O)OC)CC1 [Compound 40, 2,6-Difluoro-N-[4-(1-methoxycarbonyl-5-vinyl-2,3,6,7-tetrahydro-1H-azepin-4-yl)-phenyl]-benzamide]
7.4 | O=C(Nc1ccc(C2=C(c3cnco3)CCCC2)cc1)c1c(F)cccc1F [Compound 23, N-[4-(2-oxazol-5-yl-cyclohex-1-enyl)-phenyl]-2,6-difluoro-benzamide]
153 | CC1=C(c2ccc(NC(=O)c3ccncc3C)cc2)CN(C(=O)OCc2ccccc2)CC1 [Compound 51, N-[4-(1-benzyloxycarbonyl-4-methyl-1,2,5,6-tetrahydro-pyridin-3-yl)-phenyl]-3-methyl-isonicotinamide]
721 | O=C(Nc1ccc(C2=C(CO)CCCC2)cc1)c1c(F)cccc1F [Compound 22, N-[4-(2-hydroxymethyl-cyclohex-1-enyl)-phenyl]-2,6-difluoro-benzamide]
68 | CC(=O)[C@@H]1CCC(C)=C(c2ccc(NC(=O)c3ccncc3C)cc2)C1 [Compound 6, 3-Methyl-N-[4-(2-methyl-5(R)-acetyl-cyclohex-1-enyl)-phenyl]-isonicotinamide]
> 1000 | O=C(Nc1ccc(C2=CCCCC2)cc1)c1ccncc1F [Compound 18, N-(4-Cyclohexenylphenyl)-3-fluoroisonicotinamide]
84 | CC1=C(c2ccc(NC(=O)c3ccncc3F)cc2)CCCC1 [Compound 1, 3-Fluoro-N-[4-(2-methyl-cyclohex-1-enyl)-phenyl]-isonicotinamide]
> 1000 | CC1=C(c2ccc(NC(=O)c3c(F)cccc3F)cc2)CN(C)CC1 [Compound 10, N-(4-(1,4-dimethyl-1,2,5,6-tetrahydropyridin-3-yl)phenyl)-2,6-difluorobenzamide]
44 | CC1=C(c2ccc(NC(=O)c3ccncc3F)cc2)CN(c2ncco2)CC1 [Compound 71, N-[4-(1-oxazol-2-yl-4-methyl-1,2,5,6-tetrahydro-pyridin-3-yl)-phenyl]-3-fluoro-isonicotinamide]
11 | C=C(C)[C@@H]1CCC(C)=C(c2ccc(NC(=O)c3ccncc3C)cc2)C1 [Compound 2, 3-Methyl-N-[4-(2-methyl-5(R)-isopropenyl-cyclohex-1-enyl)-phenyl]-isonicotinamide]
165 | CC1=C(c2ccc(NC(=O)c3ncncc3C)cc2)CCCC1 [Compound 26, 5-Methyl-pyrimidine-4-carboxylic acid [4-(2-methyl-cyclohex-1-enyl)-phenyl]-amide]

Same assay, conditions: Homo sapiens, PHA 2.5 μg/mL, 20 hours, IL-2 ELISA

SMILES | IC50 [nM]
CC1=C(c2ccc(NC(=O)c3c(F)cccc3F)cc2)CCNC1 [Compound 17, 2,6-Difluoro-N-(4-(5-methyl-1,2,3,6-tetrahydropyridin-4-yl)phenyl)benzamide] | > 1000
CC1=C(c2ccc(NC(=O)c3c(F)cccc3F)cc2)CCN(C)C1 [Compound 15, N-(4-(1,5-Dimethyl-1,2,3,6-tetrahydropyridin-4-yl)phenyl)-2,6-difluorobenzamide] | > 1000

Same assay, conditions: PHA 2.5 μg/mL, 20 hours, IL-2 ELISA, dihydrochloride

IC50 [nM] | SMILES
5 | CC1=C(c2ccc(NC(=O)c3ccncc3F)cc2)CN(c2nccs2)CC1 [Compound 74, N-[4-(1-thiazol-2-yl-4-methyl-1,2,5,6-tetrahydro-pyridin-3-yl)-phenyl]-3-fluoro-isonicotinamide, dihydrochloride]

Same assay, conditions: PHA 2.5 μg/mL, 20 hours, IL-2 ELISA, hydrochloride

IC50 [nM] | SMILES
11 | CC1=C(c2ccc(NC(=O)c3c(F)cccc3F)cc2)CN(c2nccs2)CC1 [Compound 75, 2,6-Difluoro-N-[4-(1-thiazol-2-yl-4-methyl-1,2,5,6-tetrahydro-pyridin-3-yl)-phenyl]-benzamide, hydrochloride]
